Like-named read-outs stand apart in the source and are kept apart here.
How the values were obtained:
[1] = test system: RBL-2H3 cells; experiment: Fluorescence-based assay of store-operated calcium entry in RBL-2H3 cells; type: cell-based, rat; conditions: for IC50: thapsigargin, 50% inhibition of Upslope, read-out: RBL-2H3 (IC50, μmol)
Method: B. Fluorescence-Based Assay of Store-Operated Calcium Entry in RBL-2H3 Cells.
RBL-2H3 cells are obtained from ATCC and maintained in complete medium with 10% FBS at 37° C./6% CO2.
The day prior to performing the assay, RBL-2H3 cells are plated in 50 μL of complete medium in a 384 well plate. Cells are grown at 37° C./6% CO2 overnight and grow to 50-60% confluence by the next day. On the assay day, 1.5 μM Fluo-4-AM dye (Invitrogen) in complete medium is added and incubated for 1 hour at RT. Cells are washed twice in Ca^2+-free HBSS buffer and 35 μL Ca^2+-free HBSS buffer is added to each well. 10 μL of a test compound prepared in a Ca^2+-free HBSS solution at 4.5× of the desired concentration is added to a well and incubated for 5 minutes at RT. 10 μL of thapsigargin prepared in a Ca^2+-free HBSS solution at 5.5× of the desired concentration (5.5 uM) is added to each well and incubated for an additional 25 minutes. The initial baseline fluorescence signal is measured with a FLIPR^384 (Molecular Devices) plate reader. 5 μL of 12× calcium in HBSS (12 mM) is added and changes in cellular fluorescence are measured with the FLIPR^384 plate reader. In each well, the change in the fluorescent signal as a function of time due to calcium entry into the cell is determined by calculating the difference between the fluorescent signal measured 7 seconds after calcium addition and the initial baseline fluorescence signal at time zero (t=0). This parameter is designated Upslope. The IC50 value is calculated as the concentration at which 50% of the Upslope is inhibited.

[2] = target: T1, Orai1/STIM1 (Homo sapiens, UniProt Q96D31); experiment: Fluorescence-based assay of store-operated calcium entry in Orai1/STIM1 stable cells; type: cell-based; conditions: HEK-293 cells stably expressing human STIM1 and Orai1; 50% inhibition of Peak-Basal fluorescence signal; read-out: Orai1/STIM1 (IC50, μmol)
T1 construct: expressed in transfected cells
Method: A. Fluorescence-Based Assay of Store-Operated Calcium Entry in Orai1/STIM1 Stable Cells.
Cells stably expressing recombinant human STIM1 and Orai1 are generated by transfecting a human Orai1 expression plasmid (pcDNA3.1-Orai1-cmyc) into HEK-293 cells stably overexpressing human STIM1 (Roos et al. 2005 JCB 169(3): 435-445). Colonies of cells stably expressing both STIM1 and Orai1 proteins are selected and then subcloned by limiting dilution. Cells were cultured at 37° C./6% CO2 in complete medium with 10% FBS and appropriate selection markers.
The day prior to performing the assay Orai1/STIM1 stable cells are plated in 50 μL of complete medium at 90-95% confluence in a 384 well plate. Cells are grown at 37° C./6% CO2 overnight. On the day of the assay, 1.5 μM fluo-4-AM (Invitrogen) in complete medium is added to the cells, which are then incubated for 1 hour at RT. Cells are washed once in Ca^2+-free HBSS (Hank's buffered saline solution) and 35 μl of Ca^2+-free HBSS is added to each well. Test compounds are added to wells in a 10 μL Ca^2+-free HBSS solution, prepared at 4.5× the desired final concentration, and incubated for 30 minutes at RT. The initial baseline fluorescence signal is then measured with a FLIPR^384 (Molecular Devices) plate reader. Calcium entry is initiated by adding 5 μl of 10× CaCl2 (10 mM) in HBSS, and changes in cellular fluorescence are measured with the FLIPR^384 plate reader. In each well, the magnitude of the fluorescence signal as a result of calcium entry into the cell is determined by calculating the difference between the peak fluorescence signal measured after calcium addition and the initial baseline fluorescence signal (designated Peak-Basal). IC50 values are typically calculated as the concentration that inhibited 50% of the Peak-Basal signal.

T1 sequence (Q96D31 whole entry): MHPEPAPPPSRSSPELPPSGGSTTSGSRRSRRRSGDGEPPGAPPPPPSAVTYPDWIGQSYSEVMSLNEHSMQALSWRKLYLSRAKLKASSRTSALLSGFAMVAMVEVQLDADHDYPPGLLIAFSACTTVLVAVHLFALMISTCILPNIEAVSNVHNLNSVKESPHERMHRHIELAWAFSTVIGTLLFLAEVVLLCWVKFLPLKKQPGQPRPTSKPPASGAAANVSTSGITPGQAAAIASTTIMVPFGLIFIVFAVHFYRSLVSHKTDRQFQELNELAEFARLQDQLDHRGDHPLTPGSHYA

Compound	IC50 ([1]; Rattus norvegicus, RBL-2H3)	IC50 [2]	IC50 [1]	RBL-2H3 efficacy ([1]; given in place of a class)
Cc1cccc(F)c1C(=O)Nc1cnc(-c2cn(-c3nccs3)nc2C)cn1 [Example 26, 2-fluoro-6-methyl-N-(5-(3-methyl-1-(thiazol-2-yl)-1H-pyrazol-4-yl)pyrazin-2-yl)benzamide]	< 600 nM	< 600 nM	–	–
N-(5-(3-ethyl-1-(thiazol-2-yl)-1H-pyrazol-4-yl)pyrazin-2-yl)-2,3,6-trifluorobenzamide [Example 39]	–	600 to 1200 nM	< 600 nM	–
Cc1nn(-c2nccs2)cc1-c1ccc(NC(=O)c2ccccc2F)cc1F [Example 11, 2-fluoro-N-(3-fluoro-4-(3-methyl-1-(thiazol-2-yl)-1H-pyrazol-4-yl)phenyl)benzamide]	< 600 nM	< 600 nM	–	–
Cc1nn(-c2nccs2)cc1-c1ccc(NC(=O)c2c(F)cccc2F)nc1 [Example 18, 2,6-difluoro-N-(5-(3-methyl-1-(thiazol-2-yl)-1H-pyrazol-4-yl)pyridin-2-yl)benzamide]	< 600 nM	< 600 nM	–	–
CCc1nn(-c2nccs2)cc1-c1ccc(NC(=O)c2c(F)cc(F)cc2F)cc1F [Example 33, N-(4-(3-ethyl-1-(thiazol-2-yl)-1H-pyrazol-4-yl)-3-fluorophenyl)-2,4,6-trifluorobenzamide]	< 600 nM	> 1200 nM	–	–
Cc1nn(-c2nccs2)cc1-c1ccc(NC(=O)c2c(F)cc(F)cc2F)cc1F [Example 14, 2,4,6-trifluoro-N-(3-fluoro-4-(3-methyl-1-(thiazol-2-yl)-1H-pyrazol-4-yl)phenyl)benzamide]	< 600 nM	< 600 nM	–	–
Cc1nn(-c2nccs2)cc1-c1ccc(NC(=O)c2cc(F)nc(F)c2)nc1 [Example 23, 2,6-difluoro-N-(5-(3-methyl-1-(thiazol-2-yl)-1H-pyrazol-4-yl)pyridin-2-yl)isonicotinamide]	< 600 nM	< 600 nM	–	–
Cc1nn(-c2nccs2)cc1-c1ccc(NC(=O)c2c(F)cccc2F)cc1 [Example 1, 2,6-difluoro-N-(4-(3-methyl-1-(thiazol-2-yl)-1H-pyrazol-4-yl)phenyl)benzamide]	< 600 nM	< 600 nM	–	–
Cc1nn(-c2nccs2)cc1-c1ccc(NC(=O)c2c(F)ccc(F)c2F)cc1F [Example 13, 2,3,6-trifluoro-N-(3-fluoro-4-(3-methyl-1-(thiazol-2-yl)-1H-pyrazol-4-yl)phenyl)benzamide]	< 600 nM	< 600 nM	–	–
Cc1nn(-c2nccs2)cc1-c1cnc(NC(=O)c2ccccc2F)cn1 [Example 25, 2-fluoro-N-(5-(3-methyl-1-(thiazol-2-yl)-1H-pyrazol-4-yl)pyrazin-2-yl)benzamide]	< 600 nM	< 600 nM	–	–
CCc1nn(-c2nccs2)cc1-c1ccc(NC(=O)c2c(F)cccc2F)cc1 [Example 6, N-(4-(3-ethyl-1-(thiazol-2-yl)-1H-pyrazol-4-yl)phenyl)-2,6-difluorobenzamide]	< 600 nM	< 600 nM	–	–
Cc1cccc(F)c1C(=O)Nc1ccc(-c2cn(-c3nccs3)nc2C)cn1 [Example 19, 2-fluoro-6-methyl-N-(5-(3-methyl-1-(thiazol-2-yl)-1H-pyrazol-4-yl)pyridin-2-yl)benzamide]	< 600 nM	< 600 nM	–	–
Cc1nn(-c2nccs2)cc1-c1ccc(NC(=O)c2ccc(F)c(F)c2F)cc1F [Example 15, 2,3,4-trifluoro-N-(3-fluoro-4-(3-methyl-1-(thiazol-2-yl)-1H-pyrazol-4-yl)phenyl)benzamide]	< 600 nM	< 600 nM	–	–
Cc1nn(-c2nccs2)cc1-c1ccc(NC(=O)c2c(F)ccc(F)c2F)cc1 [Example 4, 2,3,6-trifluoro-N-(4-(3-methyl-1-(thiazol-2-yl)-1H-pyrazol-4-yl)phenyl)benzamide]	< 600 nM	< 600 nM	–	–
CCc1nn(-c2nccs2)cc1-c1ccc(NC(=O)c2c(F)cc(F)cc2F)nc1 [Example 37, N-(5-(3-ethyl-1-(thiazol-2-yl)-1H-pyrazol-4-yl)pyridin-2-yl)-2,4,6-trifluorobenzamide]	< 600 nM	< 600 nM	–	–
Cc1nn(-c2nccs2)cc1-c1ccc(NC(=O)c2c(F)cccc2F)cc1F [Example 10, 2,6-difluoro-N-(3-fluoro-4-(3-methyl-1-(thiazol-2-yl)-1H-pyrazol-4-yl)phenyl)benzamide]	< 600 nM	< 600 nM	–	–

Second part, led by results:

IC50 ([1]; Rattus norvegicus, RBL-2H3)	IC50 [2]	IC50 [1]	Compound	RBL-2H3 efficacy ([1]; given in place of a class)
< 600 nM	< 600 nM	–	Cc1nn(-c2cc(F)ccc2F)cc1-c1ccc(NC(=O)c2c(F)cccc2F)nc1 [Example 55, N-(5-(1-(2,5-difluorophenyl)-3-methyl-1H-pyrazol-4-yl)pyridin-2-yl)-2,6-difluorobenzamide]	–
< 600 nM	> 1200 nM	–	O=C(Nc1cnc(-c2cn(-c3nccs3)nc2C2CC2)cn1)c1c(F)ccc(F)c1F [Example 48, N-(5-(3-cyclopropyl-1-(thiazol-2-yl)-1H-pyrazol-4-yl)pyrazin-2-yl)-2,3,6-trifluorobenzamide]	–
< 600 nM	600 to 1200 nM	–	O=C(Nc1cnc(-c2cn(-c3nccs3)nc2C2CC2)cn1)c1c(F)cc(F)cc1F [Example 49, N-(5-(3-cyclopropyl-1-(thiazol-2-yl)-1H-pyrazol-4-yl)pyrazin-2-yl)-2,4,6-trifluorobenzamide]	–
< 600 nM	< 600 nM	–	Cc1nn(-c2nccs2)cc1-c1ccc(NC(=O)c2c(F)cccc2F)s1 [Example 69, 2,6-difluoro-N-(5-(3-methyl-1-(thiazol-2-yl)-1H-pyrazol-4-yl)thiophen-2-yl)benzamide]	–
< 600 nM	600 to 1200 nM	–	CCc1nn(-c2nccs2)cc1-c1ccc(NC(=O)c2c(F)cccc2F)s1 [Example 73, N-(5-(3-ethyl-1-(thiazol-2-yl)-1H-pyrazol-4-yl)thiophen-2-yl)-2,6-difluorobenzamide]	–
–	< 600 nM	–	Cc1cnc(-n2cc(-c3ccc(NC(=O)c4c(F)cc(F)cc4F)nc3)c(C)n2)s1 [Example 65, 2,4,6-trifluoro-N-(5-(3-methyl-1-(5-methylthiazol-2-yl)-1H-pyrazol-4-yl)pyridin-2-yl)benzamide]	<50%
< 600 nM	> 1200 nM	–	Cc1cn(-c2nccs2)nc1-c1ccc(NC(=O)c2c(F)cccc2F)cc1F [Example 66, 2,6-difluoro-N-(3-fluoro-4-(4-methyl-1-(thiazol-2-yl)-1H-pyrazol-3-yl)phenyl)benzamide]	–
> 1200 nM	600 to 1200 nM	–	Cc1nn(-c2nccs2)cc1-c1ccc(NC(=O)c2ccccc2OC(F)F)s1 [Example 72, 2-(difluoromethoxy)-N-(5-(3-methyl-1-(thiazol-2-yl)-1H-pyrazol-4-yl)thiophen-2-yl)benzamide]	–
< 600 nM	< 600 nM	–	Cc1cccc(F)c1C(=O)Nc1ccc(-c2cn(-c3ccccc3F)nc2C)cn1 [Example 59, 2-fluoro-N-(5-(1-(2-fluorophenyl)-3-methyl-1H-pyrazol-4-yl)pyridin-2-yl)-6-methylbenzamide]	–
< 600 nM	600 to 1200 nM	–	O=C(Nc1ccc(-c2cn(-c3nccs3)nc2C2CC2)cn1)c1c(F)cc(F)cc1F [Example 46, N-(5-(3-cyclopropyl-1-(thiazol-2-yl)-1H-pyrazol-4-yl)pyridin-2-yl)-2,4,6-trifluorobenzamide]	–
< 600 nM	< 600 nM	–	Cc1nn(-c2nccs2)cc1-c1ccc(NC(=O)c2ccccc2F)s1 [Example 70, 2-fluoro-N-(5-(3-methyl-1-(thiazol-2-yl)-1H-pyrazol-4-yl)thiophen-2-yl)benzamide]	–

Source: US9611263B2, “Compounds that modulate intracellular calcium” (CALCIMEDICA, INC., priority 2013, dated 2017)
